This test deals with heteromeric KCNQ2/3 channels (Homo sapiens, UniProt O43525+O43526). The experiment in a line: TEVC in Xenopus oocytes. Conditions: for effect of compound alone on KCNQ2/3 current: 100 µM. In kind it is cell-based.
[1] abbreviates: 100 µM compound with 10 µM GABA.
Setting [2] is: Ctrl with 2 µg/ml Pertussis toxin, no GABA.

Several values for one entry are separate records, joined by “and”; a condition that tells them apart may be missing. Identical values can stand only once. Entries after “also recorded” stand apart in the source; their conditions may differ. Like-named read-outs stand apart in the source and are kept apart here.

Sequence of heteromeric KCNQ2/3 channels (O43526 whole entry): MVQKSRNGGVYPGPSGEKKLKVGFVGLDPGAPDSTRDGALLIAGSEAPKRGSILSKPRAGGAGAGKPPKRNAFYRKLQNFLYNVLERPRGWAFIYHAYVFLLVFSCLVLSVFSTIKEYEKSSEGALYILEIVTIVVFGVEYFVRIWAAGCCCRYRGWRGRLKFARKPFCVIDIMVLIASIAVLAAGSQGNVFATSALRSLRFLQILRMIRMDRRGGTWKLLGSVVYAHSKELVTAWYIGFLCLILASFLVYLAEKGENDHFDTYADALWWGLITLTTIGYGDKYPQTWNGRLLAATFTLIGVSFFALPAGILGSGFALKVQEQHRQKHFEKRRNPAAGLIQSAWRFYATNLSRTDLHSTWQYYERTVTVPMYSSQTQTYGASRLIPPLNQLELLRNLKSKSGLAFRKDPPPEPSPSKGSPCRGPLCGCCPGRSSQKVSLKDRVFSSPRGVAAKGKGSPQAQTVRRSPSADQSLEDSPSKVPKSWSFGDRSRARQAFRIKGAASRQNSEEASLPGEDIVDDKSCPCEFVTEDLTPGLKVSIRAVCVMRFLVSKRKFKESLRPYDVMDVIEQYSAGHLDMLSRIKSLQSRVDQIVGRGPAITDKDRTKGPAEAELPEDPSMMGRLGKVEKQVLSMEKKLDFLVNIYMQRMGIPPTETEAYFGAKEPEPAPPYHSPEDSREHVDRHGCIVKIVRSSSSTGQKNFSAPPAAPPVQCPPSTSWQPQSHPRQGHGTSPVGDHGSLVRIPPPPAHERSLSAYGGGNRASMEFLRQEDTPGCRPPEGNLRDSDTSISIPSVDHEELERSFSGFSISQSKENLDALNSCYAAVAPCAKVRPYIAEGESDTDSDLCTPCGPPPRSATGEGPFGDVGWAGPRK
Sequence of heteromeric KCNQ2/3 channels (O43525 whole entry): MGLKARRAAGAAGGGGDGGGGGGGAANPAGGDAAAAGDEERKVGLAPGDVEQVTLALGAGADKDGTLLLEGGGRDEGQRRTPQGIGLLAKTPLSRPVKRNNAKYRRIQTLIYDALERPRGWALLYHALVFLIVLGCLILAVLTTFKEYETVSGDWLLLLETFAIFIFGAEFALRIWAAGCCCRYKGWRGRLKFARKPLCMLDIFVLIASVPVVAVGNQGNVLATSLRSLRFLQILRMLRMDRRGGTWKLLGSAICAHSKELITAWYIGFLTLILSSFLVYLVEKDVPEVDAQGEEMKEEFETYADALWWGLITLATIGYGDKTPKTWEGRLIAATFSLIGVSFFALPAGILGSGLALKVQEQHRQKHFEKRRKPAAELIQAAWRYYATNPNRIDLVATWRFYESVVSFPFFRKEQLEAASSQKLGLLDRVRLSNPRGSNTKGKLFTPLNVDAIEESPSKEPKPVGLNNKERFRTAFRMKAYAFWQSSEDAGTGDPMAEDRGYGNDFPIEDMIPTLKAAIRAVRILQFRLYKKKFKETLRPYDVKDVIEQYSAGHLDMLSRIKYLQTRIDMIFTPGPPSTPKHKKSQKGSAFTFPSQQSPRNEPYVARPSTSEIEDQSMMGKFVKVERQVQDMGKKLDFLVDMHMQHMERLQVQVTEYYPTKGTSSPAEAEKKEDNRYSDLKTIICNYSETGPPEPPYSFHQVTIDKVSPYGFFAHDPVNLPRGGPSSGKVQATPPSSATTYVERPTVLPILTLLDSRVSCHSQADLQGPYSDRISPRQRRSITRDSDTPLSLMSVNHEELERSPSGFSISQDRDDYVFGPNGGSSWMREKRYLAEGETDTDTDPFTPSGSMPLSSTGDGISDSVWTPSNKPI
Description: cRNA transcripts encoding human KCNQ1, KCNQ2, KCNQ3, KCNQ4, KCNQ5, KCNA1, or KCNE1 were generated by in vitro transcription using the T7 polymerase mMessage mMachine kit (Thermo Fisher Scientific), after vector linearization, from complementary DNA (cDNA) sub-cloned into plasmids incorporating Xenopus laevis β-globin 5′ and 3′ untranslated regions flanking the coding region to enhance translation and cRNA stability. cRNA was quantified by spectrophotometry. […] Defolliculated stage V and VI Xenopus laevis oocytes (Ecocyte Bioscience, Austin, TX) were injected with Kv channel α subunit cRNAs (5–10 ng).
Oocytes were placed in a small-volume oocyte bath (Warner) and viewed with a dissection microscope. Chemicals were sourced from Sigma. Bath solution was (in mM): 96 NaCl, 4 KCl, 1 MgCl2, 1 CaCl2, 10 HEPES (pH 7.6). […] Valeric acid was stored as a 5 mM stock in Ringer’s solution at 4 °C and diluted to working concentrations each experimental day. β-hydroxybutyric acid was stored at 4 °C as a 480 mM stock in 100% ethanol and diluted to working concentrations each experimental day. All compounds were introduced to the recording bath via gravity perfusion at a constant flow of 1 ml per min for 3 min prior to recording. Pipettes were of 1–2 MΩ resistance when filled with 3 M KCl. Currents were recorded in response to pulses between −80 mV and +40 mV at 20 mV intervals, or a single pulse to +40 mV, from a holding potential of −80 mV, to yield current-voltage relationships, current magnitude, and for quantifying activation rate. Deactivation was recorded at −80 mV after a single activating pulse to +40 mV, from a holding potential of −80 mV. […] TEVC data analysis was performed with Clampfit (Molecular Devices) and Graphpad Prism software (GraphPad, San Diego, CA, USA); values are stated as mean ± SEM. Normalized tail currents were plotted versus prepulse voltage and fitted with a single Boltzmann function:1 g=(A1-A2)/1+expV1/2-V∕VS+A2, where g is the normalized tail conductance, A1 is the initial value at −∞, A2 is the final value at +∞, V1/2 is the half-maximal voltage of activation, and VS the slope factor. Activation and deactivation kinetics were fitted with single exponential functions.

As to `CC(=O)OCC[N+](C)(C)C` [ACh, acetylcholine], the Slope was 4.8 ± 2.7 mV and 3.8 ± 6.5 mV and 5.1 ± 2.5 mV and 5.6 ± 2.7 mV and 5.1 ± 1.9 mV; the “concentration giving maximal effect” value is recorded as ≥ 1 µM; the “effect on KCNQ2/3 activity via endogenous mAChRs” value is recorded as “inhibited”.
As to `C[C@H](NC[C@H](O)CP(=O)(O)Cc1ccccc1)c1ccc(Cl)c(Cl)c1` [CGP55845, reference compound], the “effect of compound alone on KCNQ2/3 current” value (“effect of compound alone” below) is reported as “neither altered KCNQ2/3 currents alone”. The same compound had a Slope (100 µM CGP, Ctrl 6.7 ± 0.3) of 6.6 ± 0.7 mV. Besides, where the note is “100 µM CGP, Ctrl -44.9 ± 3.5”, the “Non-normalized tail current V0.5” value is -45.6 ± 3.7 mV. Further, the “Normalized tail current V0.5” value (100 µM CGP, Ctrl -45.1 ± 0.3) is -47.1 ± 1.1 mV. Under setting [1], the “effect on GABA activation of KCNQ2/3” value is on record as “nor did it diminish GABA activation of KCNQ2/3”.
In general, EC50 refers to the concentration giving half of the maximal effect. Low values mean greater potency, high ones weaker potency. In the case of `NCC(O)CC(=O)O` (stereo not drawn) [GABOB, γ-amino-β-hydroxybutyric acid], the “agonist character compared to BHB and GABA” value is “lower efficacy partial agonist”; the “effect on retigabine activation of KCNQ2/3” value was “reduces the efficacy”. Moreover, the Slope (0.01 µM GABOB, Ctrl 10.3 ± 1.3) was determined as 11.1 ± 1.8 mV. Moreover, the “Non-normalized tail current V0.5” value (0.01 µM GABOB, Ctrl -43.8 ± 3.9) is -42.7 ± 5.0 mV. In addition, the “Normalized tail current V0.5” value (0.01 µM GABOB, Ctrl -44.9 ± 1.5) is listed as -42.8 ± 2.0 mV. The same compound returned a Slope (0.1 µM GABOB, Ctrl 10.3 ± 1.3) of 10.6 ± 1.6 mV. Moreover, under “0.1 µM GABOB, Ctrl -43.8 ± 3.9”, the “Non-normalized tail current V0.5” value is recorded as -45.8 ± 5.1 mV. In addition, the “Normalized tail current V0.5” value (0.1 µM GABOB, Ctrl -44.9 ± 1.5) is -46.6 ± 1.9 mV. Further, the Slope (1 µM GABOB, Ctrl 10.3 ± 1.3) came to 10.1 ± 1.2 mV. In addition, under “1 µM GABOB, Ctrl -43.8 ± 3.9”, the “Non-normalized tail current V0.5” value was -46.4 ± 4.7 mV. Moreover, the “Normalized tail current V0.5” value (1 µM GABOB, Ctrl -44.9 ± 1.5) is on record as -47.1 ± 1.4 mV. Where the note is “10 µM GABOB, Ctrl 10.3 ± 1.3”, this compound registered a Slope of 9.6 ± 0.9 mV. Further, under “10 µM GABOB, Ctrl -43.8 ± 3.9”, the “Non-normalized tail current V0.5” value was -46.8 ± 4.5 mV. Besides, the “Normalized tail current V0.5” value (10 µM GABOB, Ctrl -44.9 ± 1.5) was -48.1 ± 1.2 mV. Moreover, the Slope (100 µM GABOB, Ctrl 10.3 ± 1.3) is given as 9.3 ± 0.8 mV. Further, for the setting “100 µM GABOB, Ctrl -43.8 ± 3.9”, the “Non-normalized tail current V0.5” value is reported as -46.3 ± 4.2 mV. Where the note is “100 µM GABOB, Ctrl -44.9 ± 1.5”, the “Normalized tail current V0.5” value was -47.8 ± 0.9 mV. For the same compound, the “effect on GABA activation of KCNQ2/3” value under setting [1] is “diminished the KCNQ2/3-activating efficacy of GABA”. The compound also gave a Slope (1 mM GABOB, Ctrl 10.3 ± 1.3) of 9.2 ± 0.7 mV. For the same compound, the “Non-normalized tail current V0.5” value (1 mM GABOB, Ctrl -43.8 ± 3.9) is given as -46.7 ± 4.0 mV. Moreover, where the note is “1 mM GABOB, Ctrl -44.9 ± 1.5”, the “Normalized tail current V0.5” value was -48.0 ± 0.9 mV. Moreover, for the setting “at -60 mV”, the “lowering of retigabine efficacy” value is listed as “almost fourfold”. For the setting “at −60 mV”, this compound showed an EC50 of 100 ± 10 nM.
As for `NCC(CC(=O)O)c1ccc(Cl)cc1` (stereo not drawn) [baclofen, reference compound], the “effect of compound alone” value is listed as “insensitive”. The compound further displayed a Slope (100 µM Baclofen, Ctrl 9.3 ± 0.3) of 9.2 ± 0.5 mV. Besides, for the setting “100 µM Baclofen, Ctrl -42.6 ± 2.3”, the “Non-normalized tail current V0.5” value was -45.4 ± 2.5 mV. Moreover, the “Normalized tail current V0.5” value (100 µM Baclofen, Ctrl -44.2 ± 0.4) is reported as -46.4 ± 0.6 mV.
On to `NCCc1ccc(O)c(O)c1` [dopamine], for which the “effect of compound alone” value was “no effect”. Under “100 µM Dopamine, Ctrl 8.4 ± 1.5”, the Slope was 7.2 ± 0.6 mV. For the same compound, the “Normalized tail current V0.5” value (100 µM Dopamine, Ctrl -40.8 ± 1.4) is -41.9 ± 0.6 mV. Further, the “Non-normalized tail current V0.5” value (100 µM Dopamine, Ctrl -41.6 ± 5.3) is -41.8 ± 3.6 mV.
Consider `NCC(CS(=O)(=O)O)c1ccc(Cl)cc1` (stereo not drawn) [saclofen, reference compound], for which the “effect on GABA activation of KCNQ2/3” value is “nor did it diminish GABA activation of KCNQ2/3” and the “effect of compound alone” value is reported as “neither altered KCNQ2/3 currents alone”. In addition, the Slope (100 µM Saclofen, Ctrl 5.6 ± 1.1) is listed as 5.5 ± 0.8 mV. Further, the “Non-normalized tail current V0.5” value (100 µM Saclofen, Ctrl -41.1 ± 6.7) was -42.8 ± 6.6 mV. In addition, the “Normalized tail current V0.5” value (100 µM Saclofen, Ctrl -42.3 ± 0.8) was -42.6 ± 0.8 mV.
The compound `CCCCC(=O)O` [valeric acid, reference compound] registered a Slope (500 µM Valeric acid, Ctrl 9.1 ± 0.5) of 8.5 ± 0.6 mV and a Slope (500 mM Valeric acid, Ctrl 9.1 ± 0.5) of 8.5 ± 0.6 mV. Besides, the “Normalized tail current V0.5” value by setting is: (500 µM Valeric acid, Ctrl -44.2 ± 0.6) -45.1 ± 0.6 mV; (500 mM Valeric acid, Ctrl -44.2 ± 0.6) -45.1 ± 0.6 mV. The “Non-normalized tail current V0.5” value runs as follows: (500 µM Valeric acid, Ctrl -44.5 ± 5.4) -45.6 ± 4.9 mV; (500 mM Valeric acid, Ctrl -44.5 ± 5.4) -45.9 ± 4.9 mV. Further, the “activity on KCNQ2/3” value (up to 5 mM) was “inactive; also recorded: no effects”.
On to Pertussis toxin, for which, under setting [2], the “Non-normalized tail current V0.5” value is listed as -41.9 ± 6.3 mV, the “Normalized tail current V0.5” value is listed as -40.9 ± 1.4 mV and the Slope stood at 8.8 ± 1.4 mV.
